Assays:
New Delhi MBL-1 (NDM-1) [1] = biological target: T1, New Delhi MBL-1 (NDM-1) (Klebsiella pneumoniae, UniProt C7C422); assay: steady-state hydrolysis by purified NDM-1, absorbance at […] nm; format: biochemical
T1 construct: gene blaNDM-1; His6-SUMO tag removed

New Delhi MBL-1 (NDM-1) [2] = biological target: T1, New Delhi MBL-1 (NDM-1); assay: time-dependent covalent fluorescent labelling by SDS-PAGE; blocked by ZnSO4; format: binding

T1 sequence (C7C422 29-270 limits assumed): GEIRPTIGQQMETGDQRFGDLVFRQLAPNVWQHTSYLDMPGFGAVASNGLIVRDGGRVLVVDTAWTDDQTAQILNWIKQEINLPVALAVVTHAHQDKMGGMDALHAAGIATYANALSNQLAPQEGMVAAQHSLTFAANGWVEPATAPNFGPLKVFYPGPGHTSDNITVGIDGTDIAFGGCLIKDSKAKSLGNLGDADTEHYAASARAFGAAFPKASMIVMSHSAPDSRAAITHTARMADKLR

| SMILES | steady-state hydrolysis by purified NDM-1, absorbance at 485 nm (New Delhi MBL-1 (NDM-1) [1]) | time-dependent covalent fluorescent labelling by SDS-PAGE; blocked by ZnSO4 (New Delhi MBL-1 (NDM-1) [2]) |
| --- | --- | --- |
| O=C(Cc1cccs1)N[C@@H]1C(=O)N2C(C(=O)O)=C(/C=C/c3ccc([N+](=O)[O-])cc3[N+](=O)[O-])CS[C@H]12 [nitrocefin] | we determined the steady-state kinetics of NDM-1–catalyzed hydrolysis of nitrocefin over fixed time intervals |  |
| CN(C)c1cccc2c(S(=O)(=O)NCCN3C(=O)C=CC3=O)cccc12 [DM, N-[2-(dansylamino)ethyl]maleimide] |  | NDM-1 showed time-dependent fluorescent labeling by DM in response to AMA (Fig. 4B). |
